Results reported in US10369133B2, “Immunosuppressive compounds and therapeutics” (UNIVERSITY OF TENNESSEE RESEARCH FOUNDATION, priority 2013, dated 2019).
“And” between values parts separate entries of the source, which are not always exact repeats. Identical values can stand only once.

Tests used:
[1] = Aqueous solubility of JP-3-110 by HPLC (saturated water solution); assay type: physicochemical
Experimental: The column was Inertsil ODS-3, 250×4.6 mm, 5 μm. […] From top to bottom, 0.2, 2, 20, 200, 2000 μg/mL of JP-3-110 in acetonitrile (ACN).
(§1) Quinic acid amide analog TNP was synthesized as described before. See Zeng et al., 2009, Bioorganic & Medicinal Chemistry Letters, 19:5458-5460. JP-3-110 was synthesized by conjugating TNP with MPA and the structure of JP-3-110 was confirmed by 1H NMR. FIG. 1B. […] FIGS. 7A-7D. To improve solubility, the inventors conceived to introduce aqueous solubility enhancing groups such as ionizable groups —CO2H, —SO3H or amino groups, sugars at positions R1, R2 and/or R10 of Formulas II and III. Such introduction would require routine skills. The ester bond of JP-3-110 is susceptible to hydrolytic degradation, releasing TNP and MPA as two single drugs. More than 40% of JP-3-110 in the aqueous solution will be degraded when stored in 4° C. for 1 week (FIGS. 9A-9C).

[2] = Hydrolytic stability of JP-3-110 aqueous solution by HPLC; assay type: physicochemical; conditions: aqueous solution (0.4 mg/mL) stored in 4° C. for 1 week
Experimental: The peak at 2 minutes was denoted as MPA degraded from JP-3-110.
as §1

human PBMCs in NSG mice = experiment: Immunosuppressive effect in humanized NSG mice; assay type: in vivo, mouse; conditions: for amount of human CD3+ T cells in the mouse spleen / serum human IgG level: 50 mg/kg intraperitoneally, consecutive 7 shots, compared with saline
Experimental: Human PBMCs (5×10^6/mouse) were injected intraperitoneally into NSG mice to introduce human immunity. Sections were stained to indicate human CD3+ T cells (red) and counterstained with DAPI (blue). […] Results are presented as the mean±S.D., n=5.
Human PBMCs were isolated from buffy coats by gradient centrifugation using Ficoll Paque. The T cells and B cells of PBMCs were stained with FITC conjugated CD3 antibody and APC conjugated CD19 antibody, respectively, and characterized using flow cytometry. The PBMCs were infused into diabetic NSG mice at the concentration of 5×10^6/mouse to establish human immunity. The settlement of T cells in the spleen was assessed by immunofluorescence staining. Briefly, spleen were isolated, washed with PBS, fixed in 4% paraformaldehyde overnight, and embedded in optimal cutting temperature compound. Frozen sections of 5 μm thickness were cut. The slides were stained with rabbit anti-human CD3 primary antibody (1:200) at 4° C. overnight and Alexa Fluor 568 conjugated goat anti-rabbit secondary antibody (1:500) at room temperature for 1 h. The function of B cells was assessed by measuring human IgG concentration in the mouse blood.
To test the immunosuppressive effect of JP-3-110 in vivo, a humanized mouse model was used. Briefly, human PBMCs (5×10^6/mouse) were adoptively transferred into immunodeficient NSG mice to build human immunity. The human IgG level in the serum and human CD3+ T cell staining in the spleen was used to confirm the existence of human immunity (FIG. 8B). JP-3-110 and MPA was administrated intraperitoneally at 50 mg/kg for consecutive 7 shots.

human islets [3] = experiment: Annexin V-FITC flow cytometry of apoptotic cells in human islets; assay type: cell-based; conditions: 20 μM, 5 days coculture
Experimental: Results are presented as the mean±S.D., n=3. […] Apoptotic cells were stained in dark (arrows). […] Islet was collected and dispersed with 0.25% Trypsin/EDTA into single cell suspension. P3 indicated the percentage of apoptotic cells. All experiments were performed in triplicates. Results are presented as the mean±SD. *p<0.05 as determined by an unpaired Student's t-test, n=6.
The apoptosis of INS-1E cells was analyzed using terminal deoxynucleotidyl transferase dUTP nick end labeling (TUNEL). Briefly, following JP-3-110 treatment for 48 h and cytokine cocktail treatment for additional 48 h, INS-1E cells were characterized by the DeadEnd™ Colorimetric TUNEL system (Promega, Madison, Wis., USA), in which fragmented DNA from apoptotic cells was labeled with biotinylated nucleotide and detected using hydrogen peroxide and diaminobenzidine. For human islets, following treatment with JP-3-110 and cytokines, human islets were digested with 0.25% trypsin/EDTA into a single-cell suspension, stained with the Annexin V-FITC Apoptosis Detection Kit (Abcam, Cambridge, Mass.) and analyzed with flow cytometry. Annexin V binds to phosphatidylserine on the cell surface, which is a feature found in apoptotic cells. Fluorescent intensity was analyzed using CellQuest software (BD Bioscience, Franklin Lakes, N.J.). […]
We then determined the conjugation with TNP can reduce the pro-apoptotic effect of MPA. […]

human islets [4] = experiment: Dynamic insulin release (perifusion) assay of human islets; assay type: cell-based; conditions: co-incubation with drug; for insulin release pattern under stimulatory glucose: basal then stimulatory glucose
Experimental: Briefly, 50 islets from each group were perifused with basal glucose for 60 min and stimulatory glucose for 30 min and finally with basal glucose until insulin release reversed to the basal level. Samples were collected through an automatic fraction collector and analyzed for insulin content by ELISA.
The insulin secretion from human islets was quantified using a dynamic islet perifusion assay as described before. See Wu et al., 2011, The Journal of Gene Medicine, 13:658-669. Briefly, 50 islets from each group were handpicked and loaded onto a Swinnex 13 chamber (Millipore, Burlington, Mass., USA) and perifused with Krebs-Ringer bicarbonate HEPES buffer of the following composition (in mM): 129 NaCl, 5 NaHCO3, 4.8 KCl, 1.2 KH2PO4, 1.2 MgSO4, 2.5 CaCl2, and 10 HEPES at pH 7.4. The flow rate was maintained at 1 ml/min with a peristaltic pump (Themo Fisher, Waltham, Mass.) and the temperature was maintained at 37° C. with a solution heater (Warner Instruments, Hamden, Conn.). Islets were first perifused with basal glucose for 60 min, stimulatory glucose for 20 min and basal glucose until insulin release reversed to the basal level. The perifusion speed was set to 2 mL/minute and samples were collected once per minute through an automatic fraction collector (Waters, Milford, Mass.) and analyzed for insulin content by ELISA.
A dynamic insulin release assay was used to evaluate the function of human islets. Briefly, […] handpicked human islets were sequentially perfused with basal and stimulatory glucose. The samples were collected using an auto-sampler and subjected to ELISA.

Compound	solubility class according to USP solubility criteria [1]	solubility ([1]; thermodynamic from solid, by HPLC)	JP-3-110 degraded in aqueous solution [2]	amount of human CD3+ T cells in the mouse spleen (human PBMCs in NSG mice)	serum human IgG level (human PBMCs in NSG mice)	apoptotic cells in human islets (annexin V) (human islets [3])	insulin release pattern under stimulatory glucose (human islets [4])	immunosuppressive effect, MPA compared with JP-3-110 (human PBMCs in NSG mice; humanized NSG mice, 50 mg/kg each)	total insulin release to stimulatory glucose (human islets [4])
CCCCNC(=O)[C@]1(O)C[C@@H](O)[C@@H](O)[C@H](OC(=O)CC/C(C)=C/Cc2c(OC)c(C)c3c(c2OC(C)=O)C(=O)OC3)C1 [JP-3-110, (1R,2R,3R,5S)-5-(butylcarbamoyl)-2,3,5-trihydroxycyclohexyl (E)-6-(4-acetoxy-6-methoxy-7-methyl-3-oxo-1,3-dihydroisobenzofuran-5-yl)-4-methylhex-4-enoate]	practically insoluble	480 µg/mL and 800 µM	More than 40%	significantly reduced	significantly reduced	significantly reduced the percentage of apoptotic cells	clear biphasic insulin release		
COc1c(C)c2c(c(O)c1C/C=C(\C)CCC(=O)O)C(=O)OC2 [MPA, mycophenolic acid, reference compound]				significantly reduced	significantly reduced	induced substantial apoptotic cell death	impaired the insulin release from both phases	slightly better immunosuppressive effect than JP-3-110	significantly reduction
